Measurements as given in patent US9896418B2, “Aryl ethers and uses thereof” (Peloton Therapeutics, Inc., priority 2013, dated 2018).

Test system: HIF-2α HIS TAG-PASB Domain
Test: HIF-2α Scintillation Proximity Assay (SPA)
Assay type: binding
Procedure: The percent inhibition was determined and IC50 values were calculated using the Dotmatics system based on the following equation: % inhibition=[(high control−sample)/(high control−low control)]×100.

Question: Which IC50 does the source give for `C=CS(=O)(=O)c1ccc(Oc2cc(F)cc(Cl)c2)c(Br)c1` [Compound 130, 2-Bromo-1-(3-chloro-5-fluorophenoxy)-4-(vinylsulfonyl)benzene] here?
Answer: Its IC50 is 5.5 µM.

Question: Which IC50 does the source give for `O=S(=O)(c1ccc(Oc2cc(F)cc(Cl)c2)c(Br)c1)C(F)F` [Compound 131, 2-Bromo-1-(3-chloro-5-fluorophenoxy)-4-((difluoromethyl)sulfonyl)benzene] here?
Answer: Its IC50 is 0.31 µM.

Question: How did the IC50 turn out when `N#Cc1cc(F)cc(Oc2ccc(S(=O)(=O)C(F)F)cc2Br)c1` [Compound 132, 3-(2-Bromo-4-((difluoromethyl)sulfonyl)phenoxy)-5-fluorobenzonitrile] was run?
Answer: The IC50 was 0.31 µM.

Question: For `N#Cc1cc(S(=O)(=O)C(F)F)ccc1Oc1cc(F)cc(Cl)c1` [Compound 133, 2-(3-Chloro-5-fluorophenoxy)-5-((difluoromethyl)sulfonyl)benzonitrile], which IC50 is on record?
Answer: Its IC50 is 0.5 µM.

Question: For `N#Cc1cc(F)cc(Oc2ccc(S(=O)(=O)C(F)F)cc2C#N)c1` [Compound 134, 2-(3-Cyano-5-fluorophenoxy)-5-((difluoromethyl)sulfonyl)benzonitrile], which IC50 is on record?
Answer: Its IC50 is 0.45 µM.

Question: How did the IC50 turn out when `Cc1cc(S(=O)(=O)C(F)F)ccc1Oc1cc(F)cc(Cl)c1` [Compound 135, 1-(3-Chloro-5-fluoro-phenoxy)-4-(difluoromethylsulfonyl)-2-methyl-benzene] was run?
Answer: Its IC50 is 0.37 µM.

Question: For `Cc1cc(S(=O)(=O)C(F)F)ccc1Oc1cc(F)cc(C#N)c1` [Compound 136, 3-[4-(Difluoromethylsulfonyl)-2-methyl-phenoxy]-5-fluoro-benzonitrile], which IC50 is on record?
Answer: Its IC50 is 0.23 µM.

Question: For `O=S(=O)(CF)c1ccc(Oc2cc(F)cc(Cl)c2)c(Br)c1` [Compound 137, 2-Bromo-1-(3-chloro-5-fluorophenoxy)-4-((fluoromethyl)sulfonyl)benzene], which IC50 is on record?
Answer: Its IC50 is 0.56 µM.

Question: How did the IC50 turn out when `CS(=O)(=O)c1ccc(Oc2cc(F)cc(Cl)c2)c(Br)c1` [Compound 138, 2-Bromo-1-(3-chloro-5-fluorophenoxy)-4-(methylsulfonyl)benzene] was run?
Answer: The IC50 was 4 µM.

Question: With `Cc1c(Oc2cc(F)cc(Cl)c2)ccc(S(=O)(=O)C(F)(F)F)c1Br` [Compound 140, 3-Bromo-1-(3-chloro-5-fluoro-phenoxy)-2-methyl-4-(trifluoromethylsulfonyl)benzene] as the compound, how does the IC50 read?
Answer: The IC50 was 0.029 µM.

Question: How did the IC50 turn out when `Cc1c(Oc2cc(F)cc(C#N)c2)ccc(S(=O)(=O)C(F)(F)F)c1Br` [Compound 141, 3-[3-Bromo-2-methyl-4-(trifluoromethylsulfonyl)phenoxy]-5-fluoro-benzonitrile] was run?
Answer: Its IC50 is 0.065 µM.

Question: How did the IC50 turn out when `Cc1c(Oc2cc(F)cc(C#N)c2)ccc(S(=O)(=O)C(F)(F)F)c1C#CCO` [Compound 142, 3-Fluoro-5-[3-(3-hydroxyprop-1-ynyl)-2-methyl-4-(trifluoromethylsulfonyl)phenoxy]benzonitrile] was run?
Answer: The IC50 was 13 µM.

Question: `Cc1c(Oc2cc(F)cc(Cl)c2)ccc(S(=O)(=O)C(F)(F)F)c1Cl` [Compound 143, 3-Chloro-1-(3-chloro-5-fluoro-phenoxy)-2-methyl-4-(trifluoromethylsulfonyl)benzene] was tested. Which IC50 did it give?
Answer: The IC50 was 0.02 µM.

Question: Which IC50 does the source give for `Cc1c(Oc2cc(F)cc(C#N)c2)ccc(S(=O)(=O)C(F)(F)F)c1Cl` [Compound 144, 3-Fluoro-5-[3-chloro-2-methyl-4-(trifluoromethylsulfonyl)phenoxy]benzonitrile] here?
Answer: The IC50 was 0.044 µM.

Question: With `Cc1c(Oc2cc(F)cc(C#N)c2)ccc(S(=O)(=O)C(F)(F)F)c1C=O` [Compound 145, 3-Fluoro-5-[3-formyl-2-methyl-4-(trifluoromethylsulfonyl)phenoxy]benzonitrile] as the compound, how does the IC50 read?
Answer: Its IC50 is 0.074 µM.

Question: `COC(=O)/C=C/c1c(S(=O)(=O)C(F)(F)F)ccc(Oc2cc(F)cc(C#N)c2)c1C` [Compound 147, Methyl (E)-3-[3-(3-cyano-5-fluoro-phenoxy)-2-methyl-6-(trifluoromethylsulfonyl)phenyl]prop-2-enoate] was tested. Which IC50 did it give?
Answer: The IC50 was 0.11 µM.

Question: For `CCOC(=O)/C=C/c1c(S(=O)(=O)C(F)(F)F)ccc(Oc2cc(F)cc(C#N)c2)c1C` [Compound 148, Ethyl (E)-3-(3-(3-cyano-5-fluorophenoxy)-2-methyl-6-((trifluoromethyl)sulfonyl)phenyl)acrylate], which IC50 is on record?
Answer: The IC50 was 0.22 µM.

Question: With `Cc1c(Oc2cc(F)cc(C#N)c2)ccc(S(=O)(=O)C(F)(F)F)c1/C=C/C(=O)NCc1ccccc1` [Compound 149, (E)-N-Benzyl-3-(3-(3-cyano-5-fluorophenoxy)-2-methyl-6-((trifluoromethyl)sulfonyl)phenyl)acrylamide] as the compound, how does the IC50 read?
Answer: The IC50 was 5.7 µM.

Question: Which IC50 does the source give for `Cc1c(Oc2cc(F)cc(C#N)c2)ccc(S(=O)(=O)C(F)(F)F)c1/C=C/c1nnco1` [Compound 150, 3-Fluoro-5-[2-methyl-3-[(E)-2-(1,3,4-oxadiazol-2-yl)vinyl]-4-(trifluoromethylsulfonyl)phenoxy]benzonitrile] here?
Answer: The IC50 was 1.3 µM.

Question: With `Cc1nnc(/C=C/c2c(S(=O)(=O)C(F)(F)F)ccc(Oc3cc(F)cc(C#N)c3)c2C)o1` [Compound 151, 3-Fluoro-5-[2-methyl-3-[(E)-2-(5-methyl-1,3,4-oxadiazol-2-yl)vinyl]-4-(trifluoromethylsulfonyl)phenoxy]benzonitrile] as the compound, how does the IC50 read?
Answer: Its IC50 is 1.1 µM.

Question: With `CS(=O)(=O)c1ccc(Oc2cc(F)cc(C#N)c2)c(C#N)c1Cl` [Compound 152, 2-chloro-6-(3-cyano-5-fluorophenoxy)-3-(methylsulfonyl)benzonitrile] as the compound, how does the IC50 read?
Answer: Its IC50 is 0.32 µM.

Question: With `N#Cc1c(Oc2cc(F)cc(Cl)c2)ccc(S(=O)(=O)C(F)(F)F)c1F` [Compound 153, 6-(3-chloro-5-fluorophenoxy)-2-fluoro-3-((trifluoromethyl)sulfonyl)benzonitrile] as the compound, how does the IC50 read?
Answer: The IC50 was 0.23 µM.

Question: For `N#Cc1c(Oc2cc(F)cc(Cl)c2)ccc(S(=O)(=O)C(F)(F)F)c1NCCO` [Compound 154, 6-(3-Chloro-5-fluoro-phenoxy)-2-(2-hydroxyethylamino)-3-(trifluoromethylsulfonyl)benzonitrile], which IC50 is on record?
Answer: Its IC50 is 11.7 µM.

Question: How did the IC50 turn out when `O=S(=O)(c1ccc(Oc2ccc(Cl)c(Cl)c2)c(Br)c1)C(F)(F)F` [Compound 169, 2-Bromo-1-(3,4-dichlorophenoxy)-4-((trifluoromethyl)sulfonyl)benzene] was run?
Answer: Its IC50 is 1.9 µM.

Question: `O=S(=O)(c1ccc(Oc2cc(Cl)ccc2F)c(Br)c1)C(F)(F)F` [Compound 170, 2-Bromo-1-(5-chloro-2-fluorophenoxy)-4-((trifluoromethyl)sulfonyl)benzene] was tested. Which IC50 did it give?
Answer: The IC50 was 1.8 µM.

Question: Which IC50 does the source give for `Cc1c(Cl)cccc1Oc1ccc(S(=O)(=O)C(F)(F)F)cc1Br` [Compound 171, 1-(2-Bromo-4-((trifluoromethyl)sulfonyl)phenoxy)-3-chloro-2-methylbenzene] here?
Answer: Its IC50 is 1.2 µM.

Question: With `O=S(=O)(c1ccc(Oc2cc(Cl)cc(Cl)c2)c(Br)c1)C(F)(F)F` [Compound 172, 2-Bromo-1-(3,5-dichlorophenoxy)-4-((trifluoromethyl)sulfonyl)benzene] as the compound, how does the IC50 read?
Answer: The IC50 was 0.31 µM.

Question: How did the IC50 turn out when `Cc1cc(C)cc(Oc2ccc(S(=O)(=O)C(F)(F)F)cc2Br)c1` [Compound 173, 2-Bromo-1-(3,5-dimethylphenoxy)-4-((trifluoromethyl)sulfonyl)benzene] was run?
Answer: The IC50 was 2 µM.

Question: With `Cc1ccc(Cl)cc1Oc1ccc(S(=O)(=O)C(F)(F)F)cc1Br` [Compound 174, 2-Bromo-1-(5-chloro-2-methylphenoxy)-4-((trifluoromethyl)sulfonyl)benzene] as the compound, how does the IC50 read?
Answer: The IC50 was 1.2 µM.

Question: Which IC50 does the source give for `O=S(=O)(c1ccc(Oc2cc(F)cc(CO)c2)c(Br)c1)C(F)(F)F` [Compound 177, (3-(2-Bromo-4-((trifluoromethyl)sulfonyl)phenoxy)-5-fluorophenyl)methanol] here?
Answer: The IC50 was 18 µM.

Question: With `C/C=C/c1c(S(=O)(=O)C(F)F)ccc(Oc2cc(F)cc(C#N)c2)c1C#N` [Compound 178, (E)-6-(3-Cyano-5-fluorophenoxy)-3-((difluoromethyl)sulfonyl)-2-(prop-1-en-1-yl)benzonitrile] as the compound, how does the IC50 read?
Answer: Its IC50 is 0.92 µM.

Question: `O=S(=O)(c1ccc(Oc2cc(F)cc(Cl)c2)c(Br)c1Cl)C(F)(F)F` [Compound 179, 2-Bromo-3-chloro-1-(3-chloro-5-fluorophenoxy)-4-((trifluoromethyl)sulfonyl)benzene] was tested. Which IC50 did it give?
Answer: Its IC50 is 0.023 µM.

Question: `CS(=N)(=O)c1ccc(Oc2cc(F)cc(Cl)c2)c(C#N)c1Cl` (centres unmarked) [Compound 180, 2-Chloro-6-(3-chloro-5-fluorophenoxy)-3-(S-methylsulfonimidoyl)benzonitrile] was tested. Which IC50 did it give?
Answer: Its IC50 is 9.4 µM.

Question: How did the IC50 turn out when `O=C1c2c(S(=O)(=O)C(F)F)ccc(Oc3cncc(Cl)c3)c2CC1(F)F` [Compound 182, 4-((5-Chloropyridin-3-yl)oxy)-7-((difluoromethyl)sulfonyl)-2,2-difluoro-2,3-dihydro-1H-inden-1-one] was run?
Answer: Its IC50 is 0.38 µM.

Question: `O=S(=O)(c1ccc(Oc2cncc(Cl)c2)c2c1[C@H](O)CC2)C(F)(F)F` [Compound 184, (R)-4-((5-Chloropyridin-3-yl)oxy)-7-((trifluoromethyl)sulfonyl)-2,3-dihydro-1H-inden-1-ol] was tested. Which IC50 did it give?
Answer: Its IC50 is 0.72 µM.

Question: With `CS(=O)(=NC#N)c1ccc(Oc2cc(F)cc(F)c2)c2c1C(O)CC2` (centres unmarked) [Compound 189, N-((7-(3,5-Difluorophenoxy)-3-hydroxy-2,3-dihydro-1H-inden-4-yl)(methyl)(oxo)-λ^6-sulfanylidene)cyanamide] as the compound, how does the IC50 read?
Answer: Its IC50 is 3.2 µM.

Question: For `CS(=N)(=O)c1ccc(Oc2cc(F)cc(F)c2)c2c1C(O)CC2` (centres unmarked) [Compound 190, (7-(3,5-Difluorophenoxy)-3-hydroxy-2,3-dihydro-1H-inden-4-yl)(imino)(methyl)-λ^6-sulfanone], which IC50 is on record?
Answer: Its IC50 is 0.58 µM.

Question: Which IC50 does the source give for `O=C1c2c(S(=O)(=O)C(F)F)ccc(Oc3ccc(F)c(Br)c3)c2CC1(F)F` [Compound 193, 4-(3-Bromo-4-fluorophenoxy)-7-((difluoromethyl)sulfonyl)-2,2-difluoro-2,3-dihydro-1H-inden-1-one] here?
Answer: The IC50 was 0.9 µM.

Question: Which IC50 does the source give for `O=C1c2c(S(=O)(=O)C(F)F)ccc(Oc3ccc(F)c(F)c3)c2CC1(F)F` [Compound 195, 7-((Difluoromethyl)sulfonyl)-4-(3,4-difluorophenoxy)-2,2-difluoro-2,3-dihydro-1H-inden-1-one] here?
Answer: Its IC50 is 0.11 µM.

Question: `Cc1cc(Oc2ccc(S(=O)(=O)C(F)F)c3c2CC(F)(F)C3=O)ccc1F` [Compound 197, 7-((Difluoromethyl)sulfonyl)-2,2-difluoro-4-(4-fluoro-3-methylphenoxy)-2,3-dihydro-1H-inden-1-one] was tested. Which IC50 did it give?
Answer: Its IC50 is 0.77 µM.

Question: How did the IC50 turn out when `N#Cc1cc(F)cc(Oc2ccc(S(=O)(=O)C(F)F)c3c2CCC3F)c1` (centres unmarked) [Compound 202, 3-((7-((Difluoromethyl)sulfonyl)-1-fluoro-2,3-dihydro-1H-inden-4-yl)oxy)-5-fluorobenzonitrile] was run?
Answer: The IC50 was 0.68 µM.
